Marks after values point to notes of the source that are not given here.

Test [1] deals with elastin synthesis by fibroblasts. The experiment in a line: Assay of elastin synthesis by fibroblasts (sandwich ELISA of culture supernatants). Format: cell-based, human. On the procedure:
Normal human fibroblasts are inseminated. After anchoring for 24 h, TGF-β1 and 9.1% acetylated oligoglucuronans are placed in contact with the cells for 72 h. The culture supematants are removed and the amount of elastin is quantified by sandwich ELISA.
TGF-β1 is used as the positive control for elastin synthesis.
(§1) Analysis of variance is performed on the data (treated cases compared to untreated cases). If variances are equal, a Student t test for paired series is then performed on the mean values.
Normal human fibroblasts are inseminated. After anchoring for 24 h, TGF-β1, oligoglucuronans I, oligoglucuronans II, oligoglucuronans IIII, glucuronic acid and galacturonic acid are placed in contact with the cells for 72 h. The culture supernatants are removed and the amount of elastin present is quantified by sandwich ELISA.
TGF-β1 is used as a positive control for elastin.

In test [2] the test system is laminin synthesis by keratinocytes. The experiment in a line: Assay of laminin synthesis by keratinocytes (sandwich ELISA). The class given is cell-based, human. To be noted: for Conclusion (laminin by keratinocytes) / % Change/untreated cells (laminin by keratinocytes): Table 9; for % Change/untreated cells (laminin by keratinocytes): n = 5. On the procedure:
Human keratinocytes are inseminated into 24 well plates. After anchoring for 24 h, TGF-β1 and 9.1% acetylated oligoglucuronans are placed in contact with the cells for 72 h. The culture supernatants are removed and the amount of laminin is quantified by sandwich ELISA.
TGF-β1 is used as a positive control for laminin synthesis.
as §1
Human keratinocytes are inseminated into well plates. After anchoring for 24 h, TGF-β1, oligoglucuronans I, oligoglucuronans II, oligoglucuronans III, glucuronic acid and galacturonic acid are placed in contact with the cells for 72 h. The culture supernatants are removed and the amount of laminin is quantified by sandwich ELISA.
(ELISA stands for enzyme-linked immunosorbent assay.)

The test system of test [3] is hyaluronic acid synthesis by keratinocytes. The experiment in a line: Assay of hyaluronic acid synthesis by keratinocytes (sandwich ELISA). Conditions: for % Change/untreated cells (hyaluronic acid synthesis by keratinocytes): 72 h. Format: cell-based, human. On the procedure: Human keratinocytes are inseminated. After anchoring for 24 h, retinoic acid and 9.1% acetylated oligoglucuronans are placed in contact with the cells for 72 h. The culture supernatants are removed and the amount of hyaluronic acid is quantified by sandwich ELISA.
Retinoic acid is used at the positive control for hyaluronic acid synthesis.
as §1
Human keratinocytes are inseminated into well plates. After anchoring for 24 h, retinoic acid, oligoglucuronans I, oligoglucuronans II, oligoglucuronans III, glucuronic acid and galacturonic acid are placed in contact with the cells for 72 h. The culture supernatants are removed and the amount of hyaluronic acid is quantified by sandwich ELISA.
Retinoic acid is used as a positive control of hyaluronic acid.

Test [4] deals with serum albumin incubated with fructose (Homo sapiens, UniProt P02768). The experiment in a line: Anti-glycation efficacy: inhibition of AGE (FFI compounds) production, fluorescence. The class given is biochemical. To be noted: 0.03%; serum albumin 2% + 100 mM fructose, pH 7.4, 50° C., 1 week; N=2. On the procedure:
Principle: Non-enzymatic glycation between a protein and a reducing sugar is a slow spontaneous reaction which can be accelerated by temperature. An in vitro study model consisting of serum albumin incubated with fructose for one week was used. Glycation is recorded from the formation of fluorescent compounds, generally pentosides or FFI (furoyl-furanyl-imidazoles).
Protocol: In our test, serum albumin (2%) and 100 mM fructose are incubated in a pH 7.4 phosphate buffer at 50° C. for 1 week. […] The glycation reference value (Control) for the glycation after 1 week is determined from the serum albumin and fructose incubation. The positive glycation inhibition Control is obtained by incubating in the presence of aminoguanidine 0.03% and the test incubations are performed in the presence of 9.1% acetylated oligoglucuronans at different concentrations.
Results: For each fluorescence value measured the percentage change is calculated compared to the Control. The results shown in the table below are the mean values from N=2 tests.

The mark [5] stands for this setting: Table 8, Eq 0.04% oligoglucuronans I, n = 5.
[6] abbreviates: Table 8, Eq 0.06% oligoglucuronans I, n = 5.
Setting [7] is: Table 7, Eq 0.04% oligoglucuronans I, 72 h, n = 5.
The mark [8] stands for this setting: Eq 0.04% oligoglucuronans 1, 72 h.
Setting [9] is: Eq 0.06% oligoglucuronans 1, 72 h.

serum albumin incubated with fructose, sequence (P02768 25-609): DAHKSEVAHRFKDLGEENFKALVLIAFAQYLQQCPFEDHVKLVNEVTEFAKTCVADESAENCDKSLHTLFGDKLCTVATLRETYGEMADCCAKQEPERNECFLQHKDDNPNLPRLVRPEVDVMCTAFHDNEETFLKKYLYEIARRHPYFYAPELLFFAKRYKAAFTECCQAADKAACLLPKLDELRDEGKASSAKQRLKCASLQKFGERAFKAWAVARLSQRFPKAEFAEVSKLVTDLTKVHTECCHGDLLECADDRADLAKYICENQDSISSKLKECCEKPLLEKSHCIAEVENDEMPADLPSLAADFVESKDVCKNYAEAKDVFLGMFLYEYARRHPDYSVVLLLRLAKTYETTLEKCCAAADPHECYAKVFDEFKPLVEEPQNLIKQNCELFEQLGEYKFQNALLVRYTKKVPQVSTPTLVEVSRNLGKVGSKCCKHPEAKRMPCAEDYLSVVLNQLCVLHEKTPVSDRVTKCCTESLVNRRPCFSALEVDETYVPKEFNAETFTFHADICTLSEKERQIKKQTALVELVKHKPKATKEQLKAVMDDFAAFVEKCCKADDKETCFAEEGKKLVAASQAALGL

Consider “TGF-β1: Positive control for elastin (fibroblast) and laminin (keratinocytes)”, for which the “% Change/untreated cells (elastin synthesis by fibroblasts)” value in test [1] (Table 1, 10 ng/mL, 72 h contact, N = 2) is recorded as “+122%*”; in test [1] (Table 7, 10 ng/mL, 72 h, n = 5), “+106%*”. For the same compound, the “Conclusion (elastin synthesis by fibroblasts)” value in test [1] (Table 7) is listed as “Positive”. Also, the “% Change/untreated cells (laminin synthesis by keratinocytes)” value in test [2] (Table 3, 10 ng/mL, 72 h, N = 3) is “+291%*”. Further, the “Conclusion (laminin by keratinocytes)” value in test [2] is on record as “Positive”. For the same compound, the “% Change/untreated cells (laminin by keratinocytes)” value in test [2] (10 ng/mL, 72 h) was “+255%*”.

Regarding `O=C[C@H](O)[C@@H](O)[C@@H](O)[C@H](O)C(=O)O` [Galacturonic acid], the “Conclusion (hyaluronic acid synthesis by keratinocytes)” value in test [3] (Table 8) was “=0”. Also, the “% Change/untreated cells (hyaluronic acid synthesis by keratinocytes)” value is recorded as “+7%” in test [3] (setting [5]) and “+12%” in test [3] (setting [6]). Moreover, the “Conclusion (elastin synthesis by fibroblasts)” value in test [1] (Table 7) was “=0”. Besides, in test [1] (setting [7]), the “% Change/untreated cells (elastin synthesis by fibroblasts)” value is −1%. Moreover, in test [2], the “Conclusion (laminin by keratinocytes)” value was “=0”. The “% Change/untreated cells (laminin by keratinocytes)” value in test [2] (setting [8]) is “+1%”; in test [2] (setting [9]) it was −4%.

On to `O=C[C@H](O)[C@@H](O)[C@H](O)[C@H](O)C(=O)O` [Glucuronic acid], for which the “Conclusion (hyaluronic acid synthesis by keratinocytes)” value in test [3] (Table 8) was “=0”. The “% Change/untreated cells (hyaluronic acid synthesis by keratinocytes)” value in test [3] (setting [5]) is recorded as “+10%”; in test [3] (setting [6]), “+2%”. The “Conclusion (elastin synthesis by fibroblasts)” value in test [1] (Table 7) is on record as “=0”. The “% Change/untreated cells (elastin synthesis by fibroblasts)” value in test [1] (setting [7]) is reported as “+32%”. In addition, the “Conclusion (laminin by keratinocytes)” value in test [2] is recorded as “=0”. In addition, the results for the “% Change/untreated cells (laminin by keratinocytes)” value in test [2] (setting [8]) and in test [2] (setting [9]) were −7% and −12%, respectively.

Turning to `CC1=C(/C=C/C(C)=C/C=C/C(C)=C/C(=O)O)C(C)(C)CCC1` [Retinoic acid], the “% Change/untreated cells (hyaluronic acid synthesis by keratinocytes)” value in test [3] (Table 2, 1 μM, N = 3) is given as “+144%*”; in test [3] (Table 8, 1 μM, n = 5), “+136%*”.

In the case of `N=C(N)NN` [Aminoguanidine, aminoguanidine], the “Reduction in AGE % compared to Control” value in test [4] was 67 +/− 2%.

(Values after US10159636B2, “Cosmetic composition containing acetylated oligoglucuronans” (Sederma, S.A.S., priority 2008, dated 2018).)
